From ChEMBL document CHEMBL1153480, “Study on the potential anti-cancer activity of phosphonium and ammonium-based ionic liquids” (2009)

What was measured:
Type in all cases: functional
[1] = cells; settings: Homo sapiens, CAKI
Description: Growth inhibition of human CAKI cells assessed as drug level required for 50% reduction in net protein increase by SRB assay relative to control

[2] = system: NCI-H522; assay: cells; settings: Homo sapiens
Description: Growth inhibition of human NCI-H522 cells assessed as cell growth at 10 uM by SRB assay

[3] = system: SR; assay: cells; settings: Homo sapiens
Description: Growth inhibition of human SR cells assessed as drug level required for 50% reduction in net protein increase by SRB assay relative to control

[4] = system: RXF 393; assay: Cytotoxicity against human RFX393 cells by SRB assay; settings: read-out: LC50 (the source's name)
[5] = system: NCI-H322M; assay: cells; settings: Homo sapiens
Description: Growth inhibition of human NCI-H322M cells assessed as drug level required for 50% reduction in net protein increase by SRB assay relative to control

[6] = system: TK-10; assay: cells; settings: Homo sapiens
Description: Growth inhibition of human TK10 cells assessed as drug level required for 50% reduction in net protein increase by SRB assay relative to control

[7] = system: SK-MEL-5; assay: cells; settings: Homo sapiens
Description: Growth inhibition of human SK-MEL-5 cells assessed as cell growth at 10 uM by SRB assay

[8] = system: BT-549; assay: Cytotoxicity against human BT549 cells by SRB assay; settings: read-out: LC50 (the source's name)
[9] = system: UO-31; assay: cells; settings: Homo sapiens
Description: Growth inhibition of human UO31 cells assessed as drug level required for 50% reduction in net protein increase by SRB assay relative to control

[10] = system: M14; assay: Cytotoxicity against human M14 cells by SRB assay; settings: read-out: LC50 (the source's name)
[11] = system: UACC-62; assay: cells; settings: Homo sapiens
Description: Growth inhibition of human UACC62 cells assessed as drug level required for 50% reduction in net protein increase by SRB assay relative to control

[12] = system: SK-OV-3; assay: Cytotoxicity against human SKOV3 cells by SRB assay; settings: read-out: LC50 (the source's name)
[13] = system: HOP-92; assay: cells; settings: Homo sapiens
Description: Growth inhibition of human HOP92 cells assessed as drug level required for 50% reduction in net protein increase by SRB assay relative to control

[14] = system: A498; assay: cells; settings: Homo sapiens
Description: Growth inhibition of human A498 cells assessed as cell growth at 10 uM by SRB assay

[15] = system: HCC 2998; assay: cells; settings: Homo sapiens
Description: Growth inhibition of human HCC2998 cells assessed as drug level required for 50% reduction in net protein increase by SRB assay relative to control

[16] = system: DU-145; assay: cells; settings: Homo sapiens
Description: Growth inhibition of human DU145 cells assessed as drug level required for 50% reduction in net protein increase by SRB assay relative to control

[17] = system: HOP-62; assay: Cytotoxicity against human HOP62 cells by SRB assay; settings: read-out: LC50 (the source's name)
[18] = system: MCF7; assay: Cytotoxicity against human MCF7 cells by SRB assay; settings: read-out: LC50 (the source's name)
[19] = system: SR; assay: Cytotoxicity against human SR cells by SRB assay; settings: read-out: LC50 (the source's name)
[20] = system: SF-539; assay: cells; settings: Homo sapiens
Description: Growth inhibition of human SF539 cells assessed as cell growth at 10 uM by SRB assay

[21] = system: RXF 393; assay: cells; settings: Homo sapiens
Description: Growth inhibition of human RFX393 cells assessed as cell growth at 10 uM by SRB assay

[22] = system: SK-MEL-2; assay: cells; settings: Homo sapiens
Description: Growth inhibition of human SK-MEL-2 cells assessed as cell growth at 10 uM by SRB assay

[23] = system: MDA-MB-468; assay: Cytotoxicity against human MDA-MB-468 cells by SRB assay; settings: read-out: LC50 (the source's name)
[24] = system: RPMI-8226; assay: cells; settings: Homo sapiens
Description: Growth inhibition of human RPMI8226 cells assessed as cell growth at 10 uM by SRB assay

[25] = system: DU-145; assay: cells; settings: Homo sapiens; remark: listed apart in the source
Description: Growth inhibition of human DU145 cells assessed as cell growth at 10 uM by SRB assay

[26] = system: SNB-19; assay: cells; settings: Homo sapiens
Description: Growth inhibition of human SNB19 cells assessed as cell growth at 10 uM by SRB assay

[27] = system: MDA-MB-231; assay: cells; settings: Homo sapiens
Description: Growth inhibition of human MDA-MB-231 cells assessed as cell growth at 10 uM by SRB assay

[28] = system: NCI-H226; assay: cells; settings: Homo sapiens
Description: Growth inhibition of human NCI-H226 cells assessed as cell growth at 10 uM by SRB assay

[29] = system: SK-OV-3; assay: cells; settings: Homo sapiens
Description: Growth inhibition of human SKOV3 cells assessed as drug level required for 50% reduction in net protein increase by SRB assay relative to control

[30] = system: MCF7; assay: cells; settings: Homo sapiens
Description: Growth inhibition of human MCF7 cells assessed as drug level required for 50% reduction in net protein increase by SRB assay relative to control

[31] = system: SF-539; assay: cells; settings: Homo sapiens; remark: listed apart in the source
Description: Growth inhibition of human SF539 cells assessed as drug level required for 50% reduction in net protein increase by SRB assay relative to control

[32] = system: T47D; assay: cells; settings: Homo sapiens
Description: Growth inhibition of human T47D cells assessed as drug level required for 50% reduction in net protein increase by SRB assay relative to control

[33] = system: K562; assay: cells; settings: Homo sapiens
Description: Growth inhibition of human K562 cells assessed as drug level required for 50% reduction in net protein increase by SRB assay relative to control

[34] = system: M14; assay: cells; settings: Homo sapiens
Description: Growth inhibition of human M14 cells assessed as cell growth at 10 uM by SRB assay

[35] = system: MDA-MB-468; assay: cells; settings: Homo sapiens
Description: Growth inhibition of human MDA-MB-468 cells assessed as drug level required for 50% reduction in net protein increase by SRB assay relative to control

[36] = cells; settings: Homo sapiens, CAKI; remark: listed apart in the source
Description: Growth inhibition of human CAKI cells assessed as cell growth at 10 uM by SRB assay

[37] = system: HCT-116; assay: Cytotoxicity against human HCT116 cells by SRB assay; settings: read-out: LC50 (the source's name)
[38] = system: Malme-3M; assay: Cytotoxicity against human MALME-3M cells by SRB assay; settings: read-out: LC50 (the source's name)
[39] = system: HOP-62; assay: cells; settings: Homo sapiens
Description: Growth inhibition of human HOP62 cells assessed as drug level required for 50% reduction in net protein increase by SRB assay relative to control

[40] = system: MDA-MB-435; assay: cells; settings: Homo sapiens
Description: Growth inhibition of human MDA-MB-435 cells assessed as drug level required for 50% reduction in net protein increase by SRB assay relative to control

[41] = system: UO-31; assay: cells; settings: Homo sapiens; remark: listed apart in the source
Description: Growth inhibition of human UO31 cells assessed as cell growth at 10 uM by SRB assay

[42] = system: K562; assay: Cytotoxicity against human K562 cells by SRB assay; settings: read-out: LC50 (the source's name)
[43] = system: MOLT-4; assay: cells; settings: Homo sapiens
Description: Growth inhibition of human MOLT4 cells assessed as cell growth at 10 uM by SRB assay

[44] = system: SK-MEL-5; assay: cells; settings: Homo sapiens; remark: listed apart in the source
Description: Growth inhibition of human SK-MEL-5 cells assessed as drug level required for 50% reduction in net protein increase by SRB assay relative to control

[45] = system: SF-268; assay: cells; settings: Homo sapiens
Description: Growth inhibition of human SF268 cells assessed as drug level required for 50% reduction in net protein increase by SRB assay relative to control

[46] = system: HCT-15; assay: cells; settings: Homo sapiens
Description: Growth inhibition of human HCT15 cells assessed as cell growth at 10 uM by SRB assay

[47] = system: RXF 393; assay: cells; settings: Homo sapiens; remark: listed apart in the source
Description: Growth inhibition of human RFX393 cells assessed as drug level required for 50% reduction in net protein increase by SRB assay relative to control

[48] = system: Malme-3M; assay: cells; settings: Homo sapiens
Description: Growth inhibition of human MALME-3M cells assessed as cell growth at 10 uM by SRB assay

[49] = system: UACC-62; assay: cells; settings: Homo sapiens; remark: listed apart in the source
Description: Growth inhibition of human UACC62 cells assessed as cell growth at 10 uM by SRB assay

[50] = system: KM12; assay: cells; settings: Homo sapiens
Description: Growth inhibition of human KM12 cells assessed as drug level required for 50% reduction in net protein increase by SRB assay relative to control

[51] = system: UO-31; assay: Cytotoxicity against human UO31 cells by SRB assay; settings: read-out: LC50 (the source's name)
[52] = system: OVCAR-4; assay: cells; settings: Homo sapiens
Description: Growth inhibition of human OVCAR4 cells assessed as drug level required for 50% reduction in net protein increase by SRB assay relative to control

[53] = system: HL-60(TB); assay: cells; settings: Homo sapiens
Description: Growth inhibition of human HL-60(TB) cells assessed as cell growth at 10 uM by SRB assay

[54] = system: ACHN; assay: cells; settings: Homo sapiens
Description: Growth inhibition of human ACHN cells assessed as cell growth at 10 uM by SRB assay

[55] = cells; settings: Homo sapiens, Hs-578T
Description: Growth inhibition of human Hs 578T cells assessed as cell growth at 10 uM by SRB assay

[56] = system: T47D; assay: cells; settings: Homo sapiens; remark: listed apart in the source
Description: Growth inhibition of human T47D cells assessed as cell growth at 10 uM by SRB assay

[57] = system: CCRF-CEM; assay: cells; settings: Homo sapiens
Description: Growth inhibition of human CCRF-CEM cells assessed as cell growth at 10 uM by SRB assay

[58] = system: HT-29; assay: cells; settings: Homo sapiens
Description: Growth inhibition of human HT-29 cells assessed as cell growth at 10 uM by SRB assay

[59] = system: TK-10; assay: cells; settings: Homo sapiens; remark: listed apart in the source
Description: Growth inhibition of human TK10 cells assessed as cell growth at 10 uM by SRB assay

[60] = system: NCI-H226; assay: cells; settings: Homo sapiens; remark: listed apart in the source
Description: Growth inhibition of human NCI-H226 cells assessed as drug level required for 50% reduction in net protein increase by SRB assay relative to control

[61] = system: HL-60(TB); assay: cells; settings: Homo sapiens; remark: listed apart in the source
Description: Growth inhibition of human HL-60(TB) cells assessed as drug level required for 50% reduction in net protein increase by SRB assay relative to control

[62] = system: HCT-116; assay: cells; settings: Homo sapiens
Description: Growth inhibition of human HCT116 cells assessed as drug level required for 50% reduction in net protein increase by SRB assay relative to control

[63] = system: K562; assay: cells; settings: Homo sapiens; remark: listed apart in the source
Description: Growth inhibition of human K562 cells assessed as cell growth at 10 uM by SRB assay

[64] = system: HT-29; assay: cells; settings: Homo sapiens; remark: listed apart in the source
Description: Growth inhibition of human HT-29 cells assessed as drug level required for 50% reduction in net protein increase by SRB assay relative to control

[65] = system: OVCAR-8; assay: Cytotoxicity against human OVCAR8 cells by SRB assay; settings: read-out: LC50 (the source's name)
[66] = system: OVCAR-3; assay: Cytotoxicity against human OVCAR-3 cells by SRB assay; settings: read-out: LC50 (the source's name)
[67] = system: OVCAR-4; assay: Cytotoxicity against human OVCAR4 cells by SRB assay; settings: read-out: LC50 (the source's name)
[68] = system: SW-620; assay: cells; settings: Homo sapiens
Description: Growth inhibition of human SW620 cells assessed as drug level required for 50% reduction in net protein increase by SRB assay relative to control

[69] = system: SF-268; assay: cells; settings: Homo sapiens; remark: listed apart in the source
Description: Growth inhibition of human SF268 cells assessed as cell growth at 10 uM by SRB assay

[70] = system: ACHN; assay: cells; settings: Homo sapiens; remark: listed apart in the source
Description: Growth inhibition of human ACHN cells assessed as drug level required for 50% reduction in net protein increase by SRB assay relative to control

[71] = system: CCRF-CEM; assay: cells; settings: Homo sapiens; remark: listed apart in the source
Description: Growth inhibition of human CCRF-CEM cells assessed as drug level required for 50% reduction in net protein increase by SRB assay relative to control

[72] = cells; settings: Homo sapiens, Hs-578T; remark: listed apart in the source
Description: Growth inhibition of human Hs 578T cells assessed as drug level required for 50% reduction in net protein increase by SRB assay relative to control

[73] = system: DU-145; assay: Cytotoxicity against human DU145 cells by SRB assay; settings: read-out: LC50 (the source's name)

CCCCCCCC[N+](C)(CCCCCCCC)CCCCCCCC.O=S(=O)([N-]S(=O)(=O)C(F)(F)F)C(F)(F)F
GI50 [1]: 84 nM
growth at 10 µM [2]: -99.9%
GI50 [3]: 162 nM
CC50 [4]: 5750 nM
GI50 [5]: 1810 nM
GI50 [6]: 503 nM
growth at 10 µM [7]: -100%
CC50 [8]: 4420 nM
GI50 [9]: 686 nM
CC50 [10]: 9190 nM
GI50 [11]: 335 nM
CC50 [12]: 5120 nM
GI50 [13]: 206 nM
growth at 10 µM [14]: -100%
GI50 [15]: 425 nM
GI50 [16]: 407 nM
CC50 [17]: 7770 nM
CC50 [18]: 4020 nM
CC50 [19]: 5130 nM
growth at 10 µM [20]: -100%
growth at 10 µM [21]: -100%
growth at 10 µM [22]: -94.1%
CC50 [23]: 2110 nM
growth at 10 µM [24]: 44.2%
growth at 10 µM [25]: -100%
growth at 10 µM [26]: -89.6%
growth at 10 µM [27]: -87%
growth at 10 µM [28]: -86.2%
GI50 [29]: 565 nM
GI50 [30]: 317 nM
GI50 [31]: 514 nM
GI50 [32]: 428 nM
GI50 [33]: 186 nM
growth at 10 µM [34]: -91.7%
GI50 [35]: 119 nM
growth at 10 µM [36]: -98.6%
CC50 [37]: 9900 nM
CC50 [38]: 4110 nM
GI50 [39]: 787 nM
GI50 [40]: 335 nM
growth at 10 µM [41]: -100%
CC50 [42]: 4860 nM
growth at 10 µM [43]: 37.4%
GI50 [44]: 177 nM
GI50 [45]: 493 nM
growth at 10 µM [46]: -75%
GI50 [47]: 464 nM
growth at 10 µM [48]: -94.1%
growth at 10 µM [49]: -94.5%
GI50 [50]: 310 nM
CC50 [51]: 5950 nM
GI50 [52]: 309 nM
growth at 10 µM [53]: 32%
growth at 10 µM [54]: -93.6%
growth at 10 µM [55]: -66.7%
growth at 10 µM [56]: -73.3%
growth at 10 µM [57]: 85.7%
growth at 10 µM [58]: -100%
growth at 10 µM [59]: -100%
GI50 [60]: 478 nM
GI50 [61]: 173 nM
GI50 [62]: 319 nM
growth at 10 µM [63]: 86.9%
GI50 [64]: 305 nM
CC50 [65]: 5880 nM
CC50 [66]: 4180 nM
CC50 [67]: 5800 nM
GI50 [68]: 378 nM
growth at 10 µM [69]: -100%
GI50 [70]: 630 nM
GI50 [71]: 190 nM
GI50 [72]: 417 nM
CC50 [73]: 4440 nM

CCCCCCCCCCCCCCCCCCPCCCCCCCCCCCCCC (stereo unspecified) [MONO(OCTADECYL(TETRADECYL)PHOSPHONIUM) MONO(HEXAFLUOROPHOSPHATE(V)) MONO(TETRAFLUOROBORATE)]
GI50 [1]: 350 nM
growth at 10 µM [2]: -50.9%
GI50 [3]: 107 nM
CC50 [4]: > 100000 nM
GI50 [5]: 401 nM
GI50 [6]: 234 nM
growth at 10 µM [7]: -69.2%
CC50 [8]: > 100000 nM
GI50 [9]: 398 nM
CC50 [10]: > 100000 nM
GI50 [11]: 61 nM
CC50 [12]: > 100000 nM
GI50 [13]: 38 nM
growth at 10 µM [14]: -75.6%
GI50 [15]: 297 nM
GI50 [16]: 357 nM
CC50 [17]: > 100000 nM
CC50 [18]: > 100000 nM
CC50 [19]: > 100000 nM
growth at 10 µM [20]: -83.2%
growth at 10 µM [21]: -16.9%
growth at 10 µM [22]: -64.7%
CC50 [23]: > 100000 nM
growth at 10 µM [24]: 27.2%
growth at 10 µM [25]: -54.3%
growth at 10 µM [26]: -44.9%
growth at 10 µM [27]: -74.5%
growth at 10 µM [28]: -68.1%
GI50 [29]: 331 nM
GI50 [30]: 253 nM
GI50 [31]: 234 nM
GI50 [32]: 89 nM
GI50 [33]: 38 nM
growth at 10 µM [34]: -67.2%
GI50 [35]: 53 nM
growth at 10 µM [36]: -70.2%
CC50 [37]: > 100000 nM
CC50 [38]: > 100000 nM
GI50 [39]: 399 nM
GI50 [40]: 50 nM
growth at 10 µM [41]: -44.8%
CC50 [42]: > 100000 nM
growth at 10 µM [43]: 7.02%
GI50 [44]: 74 nM
GI50 [45]: 88 nM
growth at 10 µM [46]: -35.8%
GI50 [47]: 352 nM
growth at 10 µM [48]: -61.6%
growth at 10 µM [49]: -77.4%
GI50 [50]: 59 nM
CC50 [51]: > 100000 nM
GI50 [52]: 125 nM
growth at 10 µM [53]: 24.9%
growth at 10 µM [54]: -58.9%
growth at 10 µM [55]: -44.2%
growth at 10 µM [56]: -38.5%
growth at 10 µM [57]: 23.3%
growth at 10 µM [58]: -45%
growth at 10 µM [59]: -75%
GI50 [60]: 189 nM
GI50 [61]: 39 nM
GI50 [62]: 84 nM
growth at 10 µM [63]: 16.6%
GI50 [64]: 61 nM
CC50 [65]: > 100000 nM
CC50 [66]: > 100000 nM
CC50 [67]: > 100000 nM
GI50 [68]: 72 nM
growth at 10 µM [69]: -49%
GI50 [70]: 244 nM
GI50 [71]: 34 nM
GI50 [72]: 84 nM
CC50 [73]: > 100000 nM
